Laboratory results as given in patent publication US11732143B2, “Identification and characterization of novel corrosion inhibitor molecules” (ECOLAB USA INC., priority 2015, dated 2023).

Tested on: live bacteria
Experiment: Biocide efficiency, fluorescence detection of ATP, percentage kill / viable bacteria
Type: cell-based
Details: for biocidal efficiency in conjunction with biocide 4: 120 ppm corrosion inhibitor + 100 ppm biocide 4 (glutaraldehyde); for biocidal efficiency of the corrosion inhibitor by itself (viable microorganisms): 120 ppm corrosion inhibitor alone
Description: Biocidal efficiency of the biocide and biocide in conjunction with corrosion inhibitors were analyzed using fluorescence to indirectly detect the amount of ATP in a given sample. ATP provides a direct correlation to live bacteria (1fg of ATP=1 cell). Through a standard curve, it is the possible to translate the amount of ATP in a given sample to the number of cells/mL in a given sample. Percentage kill was calculated by normalizing the detected bacterial numbers in a biocide or a biocide and corrosion inhibitor treated sample to untreated sample.

2-hydroxylethyl-N-methylbutane-1-sulphonamide
biocidal efficiency in conjunction with biocide 4: does not have any biocidal properties | biocidal efficiency of the corrosion inhibitor by itself (viable microorganisms): does not have any biocidal properties

Cocoamphodiproprionate sodium salt
biocidal efficiency in conjunction with biocide 4: modest increase in the biocidal properties of biocide 4 | biocidal efficiency of the corrosion inhibitor by itself (viable microorganisms): not efficient in reducing the number of viable microorganisms by itself
